One data set addresses T1, Aromatase (Homo sapiens, UniProt P11511).
T1 sequence (P11511 whole entry): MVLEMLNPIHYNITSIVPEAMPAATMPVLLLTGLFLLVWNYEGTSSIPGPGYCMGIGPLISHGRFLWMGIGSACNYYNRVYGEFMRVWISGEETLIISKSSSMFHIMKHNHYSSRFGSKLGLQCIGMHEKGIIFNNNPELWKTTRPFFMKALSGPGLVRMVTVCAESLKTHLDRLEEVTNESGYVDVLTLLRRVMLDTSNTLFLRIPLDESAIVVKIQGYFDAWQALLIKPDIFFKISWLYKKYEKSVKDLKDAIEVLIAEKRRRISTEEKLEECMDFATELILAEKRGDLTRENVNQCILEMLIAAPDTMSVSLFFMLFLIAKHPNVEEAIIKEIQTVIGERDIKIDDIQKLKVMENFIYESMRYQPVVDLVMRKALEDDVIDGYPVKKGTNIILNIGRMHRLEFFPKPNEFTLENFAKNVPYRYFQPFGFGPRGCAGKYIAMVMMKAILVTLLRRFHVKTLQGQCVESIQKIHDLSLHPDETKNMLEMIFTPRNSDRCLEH

Data set [1] addresses T2, CYP19 (aromatase) (Homo sapiens, UniProt P11511).
T2 sequence (P11511 whole entry): T1 sequence (P11511 whole entry)
The experiment in a line: Inhibition of human CYP19 assessed as residual activity at 10 uM using [1beta-3H]-androstenedione as substrate after 15 mins in presence of NADPH by liquid scintillation counter method relative to control. As to conditions: probe [1beta-3H]-androstenedione, read-out: Activity.

Data set [2] deals with T2, CYP19 (aromatase). The data set is described as follows: Inhibition of human CYP19 assessed as residual activity at 0.1 uM using [1beta-3H]-androstenedione as substrate after 15 mins in presence of NADPH by liquid scintillation counter method relative to control. As to conditions: probe [1beta-3H]-androstenedione, read-out: Activity.

Some results are limits rather than exact numbers.
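For IC50 in this document: tritiated androstenedione turnover by human CYP19 with NADPH over 15 min, measured through liquid scintillation counting, value is the concentration halving enzyme activity.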

The molecule `CCN(CC)c1ccc2ccc(=O)oc2c1` had an IC50 against Aromatase above 10 µM. Besides, at CYP19 (aromatase) [1], the activity at 0.25 h, 10 µM was 86%.
On Aromatase, `O=c1ccc2ccc(-c3ccccc3)cc2o1` showed an IC50 above 10 µM.
Same read-out and setting: as for `COc1ccc(-c2ccc3ccc(=O)oc3c2)cc1`, the figure is above 10 µM.
On to `CCN(CC)c1ccc2cc(-c3nc(-c4ccccc4)cs3)c(=O)oc2c1`, for which the IC50 on Aromatase is above 10 µM. In addition, the activity at 0.25 h, 10 µM on CYP19 (aromatase) [1] is 65%.
On to `CCN(CC)c1ccc2cc(-c3cc4ccc(N(CC)CC)cc4oc3=O)c(=O)oc2c1`, for which, at Aromatase, the IC50 was found to be 0.0287 µM. The activity at 0.25 h, 0.1 µM at CYP19 (aromatase) [2] came out at 30%. Besides, the activity at 0.25 h, 10 µM at CYP19 (aromatase) [1] worked out at 0%.
Regarding `CCOC(=O)c1oc(-c2cc3ccc(N(CC)CC)cc3oc2=O)nc1C`, the IC50 on Aromatase was above 10 µM. For the same molecule, the activity at 0.25 h, 10 µM at CYP19 (aromatase) [1] is 22 to 104%.
On to `CCOC(=O)c1csc(-c2cc3ccc(N(CC)CC)cc3oc2=O)n1`, for which, on Aromatase, the IC50 turned out to be 1.1 µM. Further, on CYP19 (aromatase) [1], the activity at 0.25 h, 10 µM came out at 22%.
`O=c1ccc2ccc(-c3ccncc3)cc2o1` showed an IC50 at Aromatase of 2.6 µM. Moreover, the activity at 0.25 h, 0.1 µM on CYP19 (aromatase) [2] stood at 92%. Besides, at CYP19 (aromatase) [1], the activity at 0.25 h, 10 µM was determined as 14%.
`CCN(CC)c1ccc2cc(-c3cnco3)c(=O)oc2c1` gave an IC50 against Aromatase of 3.1 µM. Moreover, at CYP19 (aromatase) [1], the activity at 0.25 h, 10 µM lay in the range of 22 to 104%.
As for `COc1ccc2cc(-c3cc4ccc(OC)cc4oc3=O)c(=O)oc2c1`, the IC50 against Aromatase is above 10 µM. Besides, the activity at 0.25 h, 10 µM at CYP19 (aromatase) [1] is 77%.
The like results for `CCN(CC)c1ccc2cc(-c3nc(CC(=O)OC)cs3)c(=O)oc2c1` were, in that order, above 10 µM and 55%.
As for `O=c1ccc2ccc(-c3cccnc3)cc2o1`, 0.0303 µM corresponded to half-maximal inhibition on Aromatase (IC50). The activity at 0.25 h, 0.1 µM on CYP19 (aromatase) [2] came to 25%. The activity at 0.25 h, 10 µM on CYP19 (aromatase) [1] is 0%.
As to `O=c1ccc2ccc(-c3ccccn3)cc2o1`, the IC50 at Aromatase is above 10 µM. In addition, the activity at 0.25 h, 10 µM at CYP19 (aromatase) [1] was determined as 96%.
The like results for `CCN(CC)c1ccc2cc(-c3coc(-c4ccccc4)n3)c(=O)oc2c1` were, in that order, above 10 µM and 22 to 104%.
`CCN(CC)c1ccc2cc(-c3nc(C)cs3)c(=O)oc2c1` came in with an IC50 against Aromatase of 1.1 µM. For the same molecule, the activity at 0.25 h, 10 µM on CYP19 (aromatase) [1] is 15%.
For `CCN(CC)c1ccc2cc(-c3ncco3)c(=O)oc2c1`, in that order: above 10 µM and 22 to 104%.
With `COc1ccc2ccc(=O)oc2c1` [HERNIARIN], the IC50 against Aromatase is above 10 µM. Also, at CYP19 (aromatase) [1], the activity at 0.25 h, 10 µM came to 96%.

(Values after ChEMBL document CHEMBL4020780, “Evaluation of synthesized coumarin derivatives on aromatase inhibitory activity” (Bioorg Med Chem Lett, 2017).)
